pIC50: −log10 of the molar value.
Assays:
CYP2C9 = target: T1, CYP2C9 (Homo sapiens, UniProt P11712); assay: CYP inhibition assay in human liver microsome, CYP2C9; format: in vitro ADME; settings: percentage inhibition, substrate Diclofenac 5 μM, <0: not or weak inhibitor
T1 construct: tissue BD-Gentest 452117; host or cells: human liver microsomes
Experimental: (§1) This is a high throughput screening assay used for assessment of reversible inhibition of CYP2C9, CYP2D6, and CYP3A4 activity of test compounds in human liver microsome (HLM) in early discovery stage.
(§2) Procedure 10 mM DMSO stock solutions of test compounds were diluted in DMSO to generate 2 mM intermediate stock solution. 250 nL of intermediate stock solution were transferred in duplicate into 3 separate 384 well microtitre plates (assay-ready plates). A mixture of HLM and each substrate was made up. 45 μL of HLM substrate mix was then transferred to each well of an assay ready plate and mixed. The negative (solvent) and positive controls (standard inhibitor for each CYP) were included in each assay ready plate. The assay ready plate was warmed to 37° C. in an incubator over 10 minutes. 5 μL pre-warmed NADPH regenerating system was added to each incubation well to start the reaction. Final incubation volume was 50 μL. The assay plate then was placed back in the 37° C. incubator. After incubation (10 minutes for CYP2D6) for 5 minutes, incubates were quenched by addition of 50 μL 100% acetonitrile containing internal standards (400 ng/mL 13C6-4′-OH-Diclofenac, 20 ng/mL D3-Dextrorphan and 20 ng/mL D4-1′OH-Midazolam). The supernatants were collected for RapidFire/MS/MS analysis.
(§3) RapidFire online solid phase extraction/sample injection system (Agilent) coupled with API4000 triple quadrupole mass spectrometer (AB Sciex) were used for sample analysis. The mobile phase composed of acetonitrile and water supplemented with 0.1% formic acid. A C4 solid phase extraction cartridge is used for sample separation. MS detection is achieved in positive ion MRM mode.
(§4) Data analysis Peak areas for substrate, metabolite and internal standard are determined using the RapidFire integrator software (version 3.6.12009.12296). Peak area ratios (PAR) of metabolite and internal standard (stable-labelled metabolite) are then calculated. The measurement window for each experiment is then defined: PAR (0% activity)=average PAR for all incubations containing concentrated inhibitor; Par (100% activity)=average PAR for all incubations containing no inhibitor (DMSO controls); % Activity (test inhibitor)=[PAR (test inhibitor)-PAR (0% activity)]/[PAR (100% activity)-PAR (0% activity)]; % Inhibition (test inhibitor)=100-% Activity (test inhibitor).

CYP2D6 = target: T2, CYP2D6 (Homo sapiens, UniProt P10635); assay: CYP inhibition assay in human liver microsome, CYP2D6; format: in vitro ADME; settings: percentage inhibition, substrate Dextromethorphan 5 μM, <0: not or weak inhibitor
T2 construct: tissue BD-Gentest 452117; host or cells: human liver microsomes
T2 sequence (P10635 whole entry): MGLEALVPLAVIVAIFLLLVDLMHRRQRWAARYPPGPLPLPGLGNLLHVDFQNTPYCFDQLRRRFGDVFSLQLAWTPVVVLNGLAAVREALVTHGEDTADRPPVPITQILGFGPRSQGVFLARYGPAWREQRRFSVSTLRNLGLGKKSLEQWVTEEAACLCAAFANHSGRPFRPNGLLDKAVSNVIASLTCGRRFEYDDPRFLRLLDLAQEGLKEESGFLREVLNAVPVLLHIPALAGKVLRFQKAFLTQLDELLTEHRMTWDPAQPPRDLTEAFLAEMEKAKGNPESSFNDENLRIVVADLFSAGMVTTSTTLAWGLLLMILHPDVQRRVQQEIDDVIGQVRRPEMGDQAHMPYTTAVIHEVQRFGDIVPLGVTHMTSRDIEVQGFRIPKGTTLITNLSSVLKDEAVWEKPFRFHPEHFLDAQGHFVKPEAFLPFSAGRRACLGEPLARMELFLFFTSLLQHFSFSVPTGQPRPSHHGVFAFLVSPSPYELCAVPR
Experimental: as §1, §2, §3, §4

CYP3A4 = target: T3, CYP3A4 (Homo sapiens, UniProt P08684); assay: CYP inhibition assay in human liver microsome, CYP3A4; format: in vitro ADME; settings: percentage inhibition, substrate Midazolam 5 μM, <0: not or weak inhibitor
T3 construct: tissue BD-Gentest 452117; host or cells: human liver microsomes
T3 sequence (P08684 whole entry): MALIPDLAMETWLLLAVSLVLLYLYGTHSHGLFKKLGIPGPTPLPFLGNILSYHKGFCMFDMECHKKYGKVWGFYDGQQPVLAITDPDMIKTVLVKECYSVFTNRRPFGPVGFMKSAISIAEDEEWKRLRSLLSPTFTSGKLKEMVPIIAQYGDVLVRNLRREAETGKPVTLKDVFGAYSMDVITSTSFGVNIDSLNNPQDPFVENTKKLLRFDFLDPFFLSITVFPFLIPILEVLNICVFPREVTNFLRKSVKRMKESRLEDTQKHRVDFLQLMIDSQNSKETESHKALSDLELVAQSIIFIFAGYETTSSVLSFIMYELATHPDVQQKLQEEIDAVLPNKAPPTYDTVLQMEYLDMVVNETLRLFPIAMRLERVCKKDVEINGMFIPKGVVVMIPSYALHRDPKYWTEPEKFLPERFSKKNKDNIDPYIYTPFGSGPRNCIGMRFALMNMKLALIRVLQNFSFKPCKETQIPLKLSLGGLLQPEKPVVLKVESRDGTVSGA
Experimental: as §1, §2, §3, §4

hTLR9 = target: T4, hTLR9 (Homo sapiens, UniProt Q9NR96); parameters: host or cells: HEK; settings: data disclosed in US20150105370; read-out: HEK/hTLR9 IC50; cited from earlier work
T4 sequence (Q9NR96 26-1032): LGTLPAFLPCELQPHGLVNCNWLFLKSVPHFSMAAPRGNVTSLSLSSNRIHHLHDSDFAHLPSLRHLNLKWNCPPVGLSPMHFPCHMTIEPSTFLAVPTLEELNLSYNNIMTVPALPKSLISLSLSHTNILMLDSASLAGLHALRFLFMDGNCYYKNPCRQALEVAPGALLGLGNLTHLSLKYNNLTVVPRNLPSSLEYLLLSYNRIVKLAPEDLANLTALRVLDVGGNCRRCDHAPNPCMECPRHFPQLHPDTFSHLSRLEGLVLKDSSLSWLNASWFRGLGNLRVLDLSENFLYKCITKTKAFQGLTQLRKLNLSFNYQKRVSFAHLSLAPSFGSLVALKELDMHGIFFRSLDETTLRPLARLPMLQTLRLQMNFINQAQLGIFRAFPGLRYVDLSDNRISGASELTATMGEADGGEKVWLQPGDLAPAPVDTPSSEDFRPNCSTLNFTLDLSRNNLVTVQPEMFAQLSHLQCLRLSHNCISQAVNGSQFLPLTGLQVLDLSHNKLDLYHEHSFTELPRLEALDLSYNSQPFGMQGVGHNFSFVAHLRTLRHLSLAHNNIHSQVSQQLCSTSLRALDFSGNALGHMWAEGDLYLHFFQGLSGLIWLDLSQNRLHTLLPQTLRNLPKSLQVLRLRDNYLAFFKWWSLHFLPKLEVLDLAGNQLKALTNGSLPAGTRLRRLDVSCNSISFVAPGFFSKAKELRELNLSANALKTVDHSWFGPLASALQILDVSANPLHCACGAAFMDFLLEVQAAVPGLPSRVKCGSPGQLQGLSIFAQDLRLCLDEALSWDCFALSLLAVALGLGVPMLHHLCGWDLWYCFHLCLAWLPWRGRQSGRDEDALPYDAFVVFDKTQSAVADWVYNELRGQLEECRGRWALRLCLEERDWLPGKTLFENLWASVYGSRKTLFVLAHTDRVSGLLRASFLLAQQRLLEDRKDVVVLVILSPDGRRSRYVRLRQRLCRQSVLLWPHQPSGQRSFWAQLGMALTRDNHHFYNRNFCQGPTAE

human TLR8 = target: T5, human TLR8 (Homo sapiens, UniProt Q9NR97); assay: HEK293-Blue-hTLR-8 cells assay; format: cell-based; settings: HEK293-Blue-hTLR8 cells, R848 stimulation, 20 hrs, SEAP reporter; read-out: HEK/hTLR8 IC50
T5 sequence (Q9NR97 27-1041): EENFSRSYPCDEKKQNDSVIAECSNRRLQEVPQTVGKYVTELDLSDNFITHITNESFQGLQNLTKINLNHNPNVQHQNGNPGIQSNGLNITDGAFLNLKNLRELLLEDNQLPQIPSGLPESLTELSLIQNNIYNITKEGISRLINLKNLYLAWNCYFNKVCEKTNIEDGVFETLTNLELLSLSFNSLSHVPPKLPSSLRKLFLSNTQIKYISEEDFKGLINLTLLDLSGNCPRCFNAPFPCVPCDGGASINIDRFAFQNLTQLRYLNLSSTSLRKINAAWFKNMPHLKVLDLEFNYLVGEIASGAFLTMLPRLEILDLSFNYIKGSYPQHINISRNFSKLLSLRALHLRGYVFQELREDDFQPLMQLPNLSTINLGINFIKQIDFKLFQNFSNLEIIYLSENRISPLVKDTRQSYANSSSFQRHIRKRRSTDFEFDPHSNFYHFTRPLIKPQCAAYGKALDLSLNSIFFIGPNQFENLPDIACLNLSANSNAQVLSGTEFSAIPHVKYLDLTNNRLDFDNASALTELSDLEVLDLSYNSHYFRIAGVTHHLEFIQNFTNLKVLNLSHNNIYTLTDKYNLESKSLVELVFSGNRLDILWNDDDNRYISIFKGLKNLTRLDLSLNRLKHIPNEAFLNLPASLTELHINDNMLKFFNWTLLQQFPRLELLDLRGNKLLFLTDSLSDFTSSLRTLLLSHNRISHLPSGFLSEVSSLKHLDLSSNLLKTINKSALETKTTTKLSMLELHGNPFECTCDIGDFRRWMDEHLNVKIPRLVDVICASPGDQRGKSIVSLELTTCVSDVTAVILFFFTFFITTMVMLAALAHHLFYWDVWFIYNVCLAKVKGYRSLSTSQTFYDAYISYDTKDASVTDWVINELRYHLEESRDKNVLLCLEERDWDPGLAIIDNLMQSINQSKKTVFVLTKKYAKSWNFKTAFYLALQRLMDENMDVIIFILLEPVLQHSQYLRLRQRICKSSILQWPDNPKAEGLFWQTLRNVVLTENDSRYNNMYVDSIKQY
Source text: HEK293-Blue-hTLR-8 cells assay:
A stable HEK293-Blue-hTLR-8 cell line was purchased from InvivoGen (Cat. #: hkb-htlr8, San Diego, California, USA). These cells were originally designed for studying the stimulation of human TLR8 by monitoring the activation of NF-κB. A SEAP (secreted embryonic alkaline phosphatase) reporter gene was placed under the control of the IFN-β minimal promoter fused to five NF-κB and AP-1-binding sites. The SEAP was induced by activating NF-κB and AP-1 via stimulating HEK-Blue hTLR8 cells with TLR8 ligands. Therefore the reporter expression was declined by TLR8 antagonist under the stimulation of a ligand, such as R848, for incubation of 20 hrs. The cell culture supernatant SEAP reporter activity was determined using QUANTI-Blue™kit (Cat. #: rep-qb1, Invivogen, San Diego, Ca, USA) at a wavelength of 640 nm, a detection medium that turns purple or blue in the presence of alkaline phosphatase.
HEK293-Blue-hTLR8 cells were incubated at a density of 250,000˜450,000 cells/mL in a volume of 170 μL in a 96-well plate in Dulbecco's Modified Eagle's medium (DMEM) containing 4.5 g/L glucose, 50 U/mL penicillin, […], […], 2 mM L-glutamine, 10% (v/v) heat-inactivated fetal bovine serum with addition of 20 μL test compound in a serial dilution in the presence of final DMSO at 1% and 10 μL of 60 uM R848 in above DMEM, perform incubation under 37° C. in a CO2 incubator for 20 hrs. Then 20 μL of the supernatant from each well was incubated with 180 μL Quanti-blue substrate solution at 37° C. for 2 hrs and the absorbance was read at 620-655 nm using a spectrophotometer. The signaling pathway that TLR8 activation leads to downstream NF-κB activation has been widely accepted, and therefore similar reporter assay was modified for evaluating TLR8 antagonist.

hERG channel = target: T6, hERG channel (Homo sapiens, UniProt Q12809); assay: hERG channel inhibition assay (patch-clamp, CHO hERG cells); format: cell-based; settings: CHO hERG cells, whole-cell patch-clamp; for IC20: human, CHO cells stably expressing hERG
T6 construct: expressed in transfected cells
T6 sequence (Q12809 whole entry): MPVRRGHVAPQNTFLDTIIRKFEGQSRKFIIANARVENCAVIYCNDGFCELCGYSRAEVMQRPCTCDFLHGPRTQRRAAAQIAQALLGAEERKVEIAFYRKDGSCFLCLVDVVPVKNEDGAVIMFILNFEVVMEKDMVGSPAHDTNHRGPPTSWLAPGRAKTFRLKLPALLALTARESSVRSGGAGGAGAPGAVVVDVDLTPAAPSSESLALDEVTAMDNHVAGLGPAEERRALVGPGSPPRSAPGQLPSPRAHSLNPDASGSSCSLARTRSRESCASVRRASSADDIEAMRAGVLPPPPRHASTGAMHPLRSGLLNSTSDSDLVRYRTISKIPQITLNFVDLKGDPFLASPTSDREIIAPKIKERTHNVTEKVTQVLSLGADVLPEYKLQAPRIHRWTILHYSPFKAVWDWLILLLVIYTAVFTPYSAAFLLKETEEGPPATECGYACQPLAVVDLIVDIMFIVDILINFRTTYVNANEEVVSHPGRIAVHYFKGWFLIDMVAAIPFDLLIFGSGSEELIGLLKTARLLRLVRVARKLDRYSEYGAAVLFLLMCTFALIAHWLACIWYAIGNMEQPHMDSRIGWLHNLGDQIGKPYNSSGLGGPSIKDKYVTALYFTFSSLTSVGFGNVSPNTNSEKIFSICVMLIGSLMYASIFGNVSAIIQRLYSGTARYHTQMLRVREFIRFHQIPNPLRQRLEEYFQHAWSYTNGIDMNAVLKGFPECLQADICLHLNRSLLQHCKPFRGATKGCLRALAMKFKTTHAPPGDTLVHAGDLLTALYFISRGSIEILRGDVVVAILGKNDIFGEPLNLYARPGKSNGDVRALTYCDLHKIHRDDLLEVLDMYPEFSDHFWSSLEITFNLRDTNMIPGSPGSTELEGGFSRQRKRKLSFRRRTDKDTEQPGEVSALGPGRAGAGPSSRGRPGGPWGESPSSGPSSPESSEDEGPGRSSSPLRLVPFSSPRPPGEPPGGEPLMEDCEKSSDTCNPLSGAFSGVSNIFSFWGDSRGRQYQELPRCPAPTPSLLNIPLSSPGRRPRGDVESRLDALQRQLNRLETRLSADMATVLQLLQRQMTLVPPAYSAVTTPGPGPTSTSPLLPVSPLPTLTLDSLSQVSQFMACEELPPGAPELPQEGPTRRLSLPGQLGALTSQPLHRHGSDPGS
Experimental: hERG Channel Inhibition Assay:
The hERG K+ channels were cloned in humans and stably expressed in a CHO (Chinese hamster ovary) cell line. CHOhERG cells were used for patch-clamp (voltage-clamp, whole-cell) experiments. Cells were stimulated by a voltage pattern to activate hERG channels and conduct IKhERG Currents (rapid delayed outward rectifier potassium current of the hERG channel). After the cells were stabilized for a few minutes, the amplitude and kinetics of IKhERG were recorded at a stimulation frequency of 0.1 Hz, (6 bpm). Thereafter, the test compound was added to the preparation at increasing concentrations. For each concentration, an attempt was made to reach a steady-state effect, usually, this was achieved within 3-10 min at which time the next highest concentration was applied. The amplitude and kinetics of IKhERG are recorded in each concentration of the drug which were compared to the control values (taken as 100%). (references: Redfern W S, Carlsson L, Davis A S, Lynch W G, MacKenzie I, Palethorpe S, Siegl P K, Strang I, Sullivan A T, Wallis R, Camm A J, Hammond T G. 2003; Relationships between preclinical cardiac electrophysiology, clinical QT interval prolongation and torsade de pointes for a broad range of drugs: evidence for a provisional safety margin in drug development. Cardiovasc. Res. 58:32-45, Sanguinetti M C, Tristani-Firouzi M. 2006; hERG potassium channels and cardiac arrhythmia. Nature 440:463-469, Webster R, Leishman D, Walker D. 2002; Towards a drug concentration effect relationship for QT prolongation and torsades de pointes. Curr. Opin. Drug Discov. Devel. 5:116-26).

T1 sequence (P11712 whole entry): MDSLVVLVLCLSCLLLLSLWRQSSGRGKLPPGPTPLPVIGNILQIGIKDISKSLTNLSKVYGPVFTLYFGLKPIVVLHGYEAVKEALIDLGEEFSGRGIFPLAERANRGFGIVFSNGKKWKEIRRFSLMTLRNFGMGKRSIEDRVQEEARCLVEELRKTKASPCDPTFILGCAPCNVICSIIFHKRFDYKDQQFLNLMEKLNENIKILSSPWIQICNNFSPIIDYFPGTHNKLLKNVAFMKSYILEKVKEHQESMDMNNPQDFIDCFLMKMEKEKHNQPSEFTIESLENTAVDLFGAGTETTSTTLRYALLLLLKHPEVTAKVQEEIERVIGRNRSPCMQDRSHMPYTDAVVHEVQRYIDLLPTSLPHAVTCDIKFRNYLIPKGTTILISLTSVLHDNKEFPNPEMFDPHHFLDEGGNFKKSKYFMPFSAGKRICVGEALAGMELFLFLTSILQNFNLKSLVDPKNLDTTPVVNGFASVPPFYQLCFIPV

For `C[C@@H]1CN(c2ccc(C#N)n3nccc23)C[C@H](CN2CC3(C2)OCc2cc(N4CC5(CN(C)C5)C4)ccc23)O1` [Example 8, 4-[(2R,6S)-2-methyl-6-[[6-(6-methyl-2,6-diazaspiro[3.3]heptan-2-yl)spiro[1H-isobenzofuran-3,3′-azetidine]-1′-yl]methyl]morpholin-4-yl]pyrazolo[1,5-a]pyridine-7-carbonitrile], the “CYP (%) 2C9” value (CYP2C9) was −8.5%, the “CYP (%) 2D6” value (CYP2D6) was 5% and the “CYP (%) 3A4” value (CYP3A4) was −8.5%.

In the case of `C[C@@H]1CN(c2ccc(C#N)c3ncccc23)C[C@H](CN2CC[C@@H](NC(=O)c3ccccc3)C2)O1` [ER-894544], the pIC50 (hTLR9) is listed as less than 5.21.

`[2H]c1ccc2c(N3C[C@H](CN4CC5(C4)OCc4cc(N6CC7(CNCCO7)C6)ccc45)O[C@H](C)C3)ccc(C#N)c2n1` [Example 15, 2-deuterio-5-[(2R,6S)-2-methyl-6-[[6-(5-oxa-2,8-diazaspiro[3.5]nonan-2-yl)spiro[1H-isobenzofuran-3,3′-azetidine]-1′-yl]methyl]morpholin-4-yl]quinoline-8-carbonitrile] showed a pIC50 (human TLR8) of 8.05.

For `[2H]c1ccc2c(N3C[C@H](CN4CC5(C4)OCc4cc(N6CC(N)C6)ccc45)O[C@H](C)C3)ccc(C#N)c2n1` [Example 14, 5-[(2S,6R)-2-[[6-(3-aminoazetidin-1-yl)spiro[1H-isobenzofuran-3,3′-azetidine]-1′-yl]methyl]-6-methyl-morpholin-4-yl]-2-deuterio-quinoline-8-carbonitrile], the pIC50 (hERG channel) was less than 4.70 and the IC20 (hERG channel) was greater than 10 µM.

For `Cc1nn(C)cc1S(=O)(=O)NC1CCN(C[C@H]2CN(c3ccc(C#N)c4ncccc34)C[C@@H](C)O2)CC1` [ER-894160], the pIC50 (hTLR9) is given as less than 5.00.

In the case of `[2H]c1ccc2c(N3C[C@H](CN4CC5(C4)OCc4cc(N6CC(C)(N)C6)ccc45)O[C@H](C)C3)ccc(C#N)c2n1` [Example 11, 5-[(2S,6R)-2-[[6-(3-amino-3-methyl-azetidin-1-yl)spiro[1H-isobenzofuran-3,3′-azetidine]-1′-yl]methyl]-6-methyl-morpholin-4-yl]-2-deuterio-quinoline-8-carbonitrile], the pIC50 (hERG channel) was less than 4.70, the IC20 (hERG channel) was 6.2 µM and the “CYP (%) 2C9” value (CYP2C9) was 4%. The “CYP (%) 2D6” value (CYP2D6) was 5.5% and the “CYP (%) 3A4” value (CYP3A4) was 12%.

For `C[C@@H]1CN(c2ccc(C#N)c3ncccc23)C[C@H](CN2CC(NS(=O)(=O)c3ccc(F)cc3)C2)O1` [ER-894155], the pIC50 (hTLR9) is given as less than 5.00.
